From US7906522B2, “2-aminoquinazoline derivatives” (Kyowa Hakko Kirin Co., Ltd, priority 2005, dated 2011)

Legend:
[1] = molecular target: T1, Activated human p38α (Homo sapiens, UniProt Q16539); experiment: p38MAP kinase inhibition test; type: biochemical; settings: at a concentration of 1 μmol/L; substrate myelin basic protein, ATP 20 μmol/L, [γ-32P]ATP; read-out: enzyme inhibitory activity
T1 construct: purchased Upstate Biotechnology Inc. 14-251
Summary of the method: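 Phosphorylation of myelin basic protein (20 μg/assay) by the kinase measured via [γ-32P]ATP incorporation at 20 μmol/L ATP, pH 7.2 MOPS buffer, 30° C. for 15 min. Labelled substrate bound to P81 paper, washed, and quantified by scintillation counting; compounds added in DMSO.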

T1 sequence (Q16539 whole entry): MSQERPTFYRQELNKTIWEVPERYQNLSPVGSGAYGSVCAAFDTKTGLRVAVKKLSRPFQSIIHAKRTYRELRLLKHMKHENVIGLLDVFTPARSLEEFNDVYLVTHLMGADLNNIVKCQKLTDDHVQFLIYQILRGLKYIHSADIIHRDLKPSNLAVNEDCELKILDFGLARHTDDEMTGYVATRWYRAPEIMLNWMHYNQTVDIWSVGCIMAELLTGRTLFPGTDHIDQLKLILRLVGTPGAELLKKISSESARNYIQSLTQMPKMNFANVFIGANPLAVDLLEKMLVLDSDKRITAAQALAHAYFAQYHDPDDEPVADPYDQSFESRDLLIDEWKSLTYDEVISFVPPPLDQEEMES

Structure (SMILES)	inhibition at 1 µM [1] [%]	melting point [°C]
Cc1ccc(NC(=O)C2CCC2)cc1-c1ccc2nc(NC(C)C)ncc2c1 [Compound 265, 6-(5-Cyclobutylcarbonylamino-2-methylphenyl)-2-(isopropylamino)quinazoline]	≥ 50	
CC(C)Nc1ncc2cc(-c3cc(NC(=O)c4ccnc(N5CCOCC5)c4)ccc3O)ccc2n1 [Compound 266, 6-{2-Hydroxy-5-[(2-morpholinopyridin-4-yl)carbonylamino]phenyl]-2-(isopropylamino)quinazoline]	≥ 50	
CC(C)Nc1ncc2cc(-c3cc(NC(=O)c4ccc[nH]4)ccc3O)ccc2n1 [Compound 267, 6-{2-Hydroxy-5-[(1H-pyrrol-2-yl)carbonylamino]phenyl}-2-(isopropylamino)quinazoline]	≥ 50	
Cc1ccc(C(=O)NC2CC2)cc1-c1ccc2nc(NC(C)C)ncc2c1 [Compound 268, 6-(5-Cyclopropylcarbamoyl-2-methylphenyl)-2-(isopropylamino)quinazoline]	≥ 50	
CC(C)Nc1ncc2cc(-c3cccc(C(=O)NC4CC4)c3)ccc2n1 [Compound 270, 6-[3-(Cyclopropylcarbamoyl)phenyl]-2-(isopropylamino)quinazoline]	≥ 50	
CC[C@H](C)Nc1ncc2cc(-c3cc(NC(C)=O)ccc3CO)ccc2n1 [Compound 272, (S)-6-[5-acetylamino-2-(hydroxymethyl)phenyl]-2-(sec-butylamino)quinazoline]	≥ 50	
CC[C@H](C)Nc1ncc2cc(-c3cc(NC(=O)c4ccc[nH]4)ccc3CO)ccc2n1 [Compound 273, (S)-2-(sec-Butylamino)-6-{2-hydroxymethyl-5-[(1H-pyrrol-2-yl)carbonylamino]phenyl}quinazoline]	≥ 50	
CC(=O)Nc1cccc(-c2ccc3nc(NC4CCN(S(C)(=O)=O)CC4)ncc3c2)c1 [Compound 274, 6-[3-(Acetylamino)phenyl]-2-[1-(methylsulfonyl)piperidin-4-ylamino]quinazoline]	≥ 50	
Cc1ccccc1-c1ccc2nc(NC3CCN(S(C)(=O)=O)CC3)ncc2c1 [Compound 275, 6-(2-Methylphenyl)-2-[1-(methylsulfonyl)piperidin-4-ylamino]quinazoline]	≥ 50	
CS(=O)(=O)N1CCC(Nc2ncc3cc(-c4cccc(O)c4)ccc3n2)CC1 [Compound 276, 6-(3-Hydroxyphenyl)-2-[1-(methylsulfonyl)piperidin-4-ylamino]quinazoline]	≥ 50	
CC(=O)Nc1cccc(-c2cc3cnc(NC(C)C)nc3cc2C)c1 [Compound 277, 6-[3-(Acetylamino)phenyl]-2-isopropylamino-7-methylquinazoline]	≥ 50	
Cc1cc2nc(NC(C)C)ncc2cc1-c1cccc(NC(=O)c2ccc[nH]2)c1 [Compound 278, 2-Isopropylamino-7-methyl-6-{3-[(1H-pyrrol-2-yl)carbonylamino]phenyl}quinazoline]	≥ 50	
Cc1cc2nc(NC(C)C)ncc2cc1-c1cccc(NC(=O)c2ccnc(N3CCOCC3)c2)c1 [Compound 279, 2-Isopropylamino-7-methyl-6-{3-[(2-morpholinopyridin-4-yl)carbonylamino]phenyl}quinazoline]	≥ 50	
CC(=O)Nc1ccc(CO)c(-c2cc3cnc(NC(C)C)nc3cc2C)c1 [Compound 280, 6-[(5-Acetylamino-2-hydroxymethyl)phenyl]-2-isopropylamino-7-methylquinazoline]	≥ 50	
Cc1cc2nc(NC(C)C)ncc2cc1-c1cc(NC(=O)c2ccc[nH]2)ccc1CO [Compound 281, 6-{2-Hydroxymethyl-5-[(1H-pyrrol-2-yl)carbonylamino]phenyl}-2-isopropylamino-7-methylquinazoline]	≥ 50	
CC(C)Nc1ncc2cc(-c3cccc([N+](=O)[O-])c3)c(OCc3ccccc3)cc2n1 [Compound 282, 7-Benzyloxy-2-isopropylamino-6-(3-nitrophenyl)quinazoline]	≥ 50	
CC(C)Nc1ncc2cc(-c3cccc(N)c3)c(O)cc2n1 [Compound 285, 6-(3-Aminophenyl)-7-hydroxy-2-(isopropylamino)quinazoline]	≥ 50	
CC(=O)Nc1cccc(-c2cc3cnc(NC(C)C)nc3cc2O)c1 [Compound 287, 6-[3-(Acetylamino)phenyl]-7-hydroxy-2-(isopropylamino)quinazoline]	≥ 50	
CC(=O)Nc1ccc(C)c(-c2cc3cnc(NC(C)C)nc3cc2O)c1 [Compound 289, 6-(5-Acetylamino-2-methylphenyl)-7-hydroxy-2-(isopropylamino)quinazoline]	≥ 50	
CC(C)Nc1ncc2cc(-c3cccc(NC(=O)c4ccc[nH]4)c3)c(O)cc2n1 [Compound 292, 7-Hydroxy-2-isopropylamino-6-{3-[(1H-pyrrol-2-yl)carbonylamino]phenyl}quinazoline]	≥ 50	

Second part, the compound after the results:

inhibition at 1 µM [1] [%]	melting point [°C]	Structure (SMILES)
≥ 50		Cc1ccc(NC(=O)C2CCC2)cc1-c1cc2cnc(NC(C)C)nc2cc1O [Compound 293, 6-(5-Cyclobutylcarbonylamino-2-methylphenyl)-7-hydroxy-2-(isopropylamino)quinazoline]
≥ 50		CC(C)Nc1ncc2cc(-c3cccc(NC(=O)C4CCC4)c3)c(O)cc2n1 [Compound 294, 6-[3-(Cyclobutylcarbonylamino)phenyl]-7-hydroxy-2-(isopropylamino)quinazoline]
≥ 50		Cc1ccc(NC(=O)C2CC2)cc1-c1cc2cnc(NC(C)C)nc2cc1O [Compound 295, 6-(5-Cyclopropylcarbonylamino-2-methylphenyl)-7-hydroxy-2-(isopropylamino)quinazoline]
≥ 50		CC(C)Nc1ncc2cc(-c3cccc(NC(=O)C4CC4)c3)c(O)cc2n1 [Compound 296, 6-[3-(Cyclopropylcarbonylamino)phenyl]-7-hydroxy-2-(isopropylamino)quinazoline]
≥ 50		CCC(=O)Nc1cccc(-c2cc3cnc(NC(C)C)nc3cc2O)c1 [Compound 297, 7-Hydroxy-2-isopropylamino-6-[3-(propionylamino)phenyl]quinazoline]
≥ 50		CC(C)Nc1ncc2cc(-c3cccc(NC(=O)C(C)(C)C)c3)c(O)cc2n1 [Compound 298, 6-[3-(tert-Butylcarbonylamino)phenyl]-7-hydroxy-2-(isopropylamino)quinazoline]
≥ 50		CC(C)Nc1ncc2cc(-c3cccc(NC(=O)C4(C)CC4)c3)c(O)cc2n1 [Compound 299, 7-Hydroxy-2-isopropylamino-6-{3-[(1-methylcyclopropyl)carbonylamino]phenyl}quinazoline]
≥ 50		Cc1cccc(C)c1Nc1ncc2cc(-c3cccc(NC(=O)c4cccc(N(C)C)c4)c3)c(O)cc2n1 [Compound 314, 6-{3-[(3-Dimethylaminophenyl)carbonylamino]phenyl}-2-(2,6-dimethylanilino)-7-hydroxyquinazoline]
≥ 50		CC(C)Nc1ncc2cc(-c3cccc4ccccc34)c(O)cc2n1 [Compound 326, 7-Hydroxy-2-isopropylamino-6-(naphthalen-1-yl)quinazoline]
≥ 50		Cc1ccc(-n2nc(C(C)(C)C)cc2C(=O)Nc2cccc(-c3cc4cnc(NC(C)C)nc4cc3O)c2)cc1 [Compound 359, 6-{3-[5-tert-Butyl-2-(4-methylphenyl)-2H-pyrazol-3-ylcarbonylamino]phenyl}-7-hydroxy-2-(isopropylamino)quinazoline]
	215 to 217	CC(C)Nc1ncc2cc(-c3cccc(NC(=O)c4cc(F)cc(N5CCCCC5)c4)c3)c(O)cc2n1 [Compound 370, 6-{3-[3-Fluoro-5-(piperidino)benzoylamino]phenyl}-7-hydroxy-2-(isopropylamino)quinazoline]
	275 to 279	CC(C)Nc1ncc2cc(-c3cccc(C(=O)Nc4ccnc(N5CCCC5)c4)c3)c(O)cc2n1 [Compound 372, 7-Hydroxy-2-isopropylamino-6-{3-[2-(pyrrolidin-1-yl)pyridin-4-ylcarbamoyl]phenyl}quinazoline]
	178	CC(C)Nc1ncc2cc(-c3cccc(NC(=O)c4ccnc(N5CCN(C)CC5)c4)c3)c(O)cc2n1 [Compound 374, 7-Hydroxy-2-isopropylamino-6-{3-[2-(4-methylpiperazin-1-yl)pyridin-4-ylcarbonylamino]phenyl}quinazoline]
	235 to 236	CC(C)Nc1ncc2cc(-c3cccc(NC(=O)c4cccc(N5CCCC5)c4)c3)c(O)cc2n1 [Compound 376, 7-Hydroxy-2-isopropylamino-6-{3-[3-(pyrrolidin-1-yl)benzoylamino]phenyl}quinazoline]
	235 to 236	Cc1ccc(C(N)=O)cc1-c1cc2cnc(NC(C)C)nc2cc1O [Compound 378, 6-(5-Carbamoyl-2-methylphenyl)-7-hydroxy-2-(isopropylamino)quinazoline]
	157	CCONC(=O)c1ccc(C)c(-c2cc3cnc(NC(C)C)nc3cc2O)c1 [Compound 380, 6-(5-Ethoxycarbamoyl-2-methylphenyl)-7-hydroxy-2-(isopropylamino)quinazoline]
	194	CCC(CC)Nc1ncc2cc(-c3cccc(NC(=O)c4ccnc(N5CCCC5)c4)c3)c(O)cc2n1 [Compound 382, 2-(3-Pentylamino)-7-hydroxy-6-{3-[2-(pyrrolidin-1-yl)pyridin-4-ylcarbonylamino]phenyl}quinazoline]
	165 to 168	CC[C@H](C)Nc1ncc2cc(-c3cccc(NC(=O)c4ccnc(N5CCCC5)c4)c3)c(O)cc2n1 [Compound 384, (S)-2-(sec-Butylamino)-7-hydroxy-6-{3-[2-(pyrrolidin-1-yl)pyridin-4-ylcarbonylamino]phenyl}quinazoline]
	230	CC(C)Nc1ncc2cc(-c3cccc(NC(=O)c4cccc(N5CCCCC5)c4)c3)c(O)cc2n1 [Compound 386, 7-Hydroxy-2-isopropylamino-6-{3-[3-(piperidino)benzoylamino]phenyl}quinazoline]
